Experimental data as given in EP0993437B1, “2-(4-BROMO OR 4-IODO PHENYLAMINO) BENZOIC ACID DERIVATIVES AND THEIR USE AS MEK INHIBITORS” (Warner-Lambert Company LLC, priority 1997, dated 1999).

Target: MEK
Experiment: Cascade assay for inhibitors of the MAP kinase pathway (In Vitro)
Type: biochemical
Method: Incorporation of ^32P into myelin basic protein (MBP) was assayed in the presence of a glutathione S-transferase fusion protein containing p44MAP kinase (GST-MAPK) and a glutathione S-transferase fusion protein containing p45MEK (GST-MEK). The assay solution contained 20 mM HEPES, pH 7.4, 10 mM MgCl2, 1-mM MnCl2, 1 mM EGTA, 50 µM [γ-^32P]ATP, 10 µg GST-MEK, 0.5 µg GST-MAPK and 40 µg MBP in a final volume of 100 µL. […] Compounds were assessed at 10 µM for ability to inhibit incorporation of ^32P.
To ascertain whether compounds were inhibiting GST-MEK or GST MAPK, two additional protocols were employed. In the first protocol, compounds were added to tubes containing GST-MEK, followed by addition of GST-MAPK, MBP and [γ-^32P]ATP.

Compound | IC50 [nM]
Cc1cc(I)ccc1Nc1ccc(Cl)cc1C(=O)NCCO [Example 187, 5-Chloro-N-(2-hydroxy-ethyl)-2-(4-iodo-2-methyl-phenylamino)-benzamide] | 561
COc1ccc(NC(=O)c2ccc(OC)c([N+](=O)[O-])c2)cc1 [Example 32, 4-Methoxy-N-(4-methoxy-phenyl)-3-nitro-benzamide] | 28
O=C(O)c1ccc(F)cc1Nc1ccc(I)cc1F [Example 218, 4-Fluoro-2-(2-fluoro-4-iodo-phenylamino)-benzoic acid] | 51
O=C(O)c1ccc(F)cc1Nc1ccc(I)cc1Br [Example 217, 2-(2-Bromo-4-iodo-phenylamino)-4-fluoro-benzoic acid] | > 1000
COc1ccc(Nc2ccc(I)cc2)c(C(=O)O)c1 [Example 24, 2-(4-Iodo-phenylamino)-5-methoxy-benzoic acid] | 1940
Cc1cc(I)ccc1Nc1ccc(Br)cc1C(=O)NCCO [Example 42, 5-Bromo-N-(2-hydroxy-ethyl)-2-(4-iodo-2-methyl-phenylamino)-benzamide] | 920
O=C(O)c1ccc([N+](=O)[O-])cc1Nc1ccc(I)cc1Cl [Example 215, 2-(2-Chloro-4-iodo-phenylamino)-4-nitro-benzoic acid] | 31
Cc1cc(I)ccc1Nc1ccc(Cl)cc1C(=O)N(C)c1ccccc1 [Example 190, 5-Chloro-2-(4-iodo-2-methyl-phenylamino)-N-methyl-N-phenyl-benzamide] | 921
Cc1cc(I)ccc1Nc1ccc([N+](=O)[O-])cc1C(=O)N(C)c1ccccc1 [Example 189, 2-(4-Iodo-2-methyl-phenylamino)-N-methyl-5-nitro-N-phenyl-benzamide] | 859
Cc1cc(I)ccc1Nc1cc(Cl)ccc1C(=O)O [Example 18, 4-Chloro-2-(4-iodo-2-methyl-phenylamino)-benzoic acid] | 446
O=C(O)c1cc([N+](=O)[O-])c(Nc2ccc(I)cc2Cl)c(F)c1Nc1ccc(I)cc1Cl [Example 212, 2,4-Bis-(2-chloro-4-iodo-phenylamino)-3-fluoro-5-nitro-benzoic acid] | 34
Cc1cc(I)ccc1Nc1ccc(Br)cc1C(=O)NCCCN1CCN(CCO)CC1 [Example 92, 5-Bromo-N-{3-[4-(2-hydroxy-ethyl)-piperazin-1-yl]-propyl}-2-(4-iodo-2-methyl-phenylamino)-benzamide] | 253
COc1cc(I)ccc1Nc1c(C(=O)O)ccc(F)c1F [Example 17, 3,4-Difluoro-2-(4-iodo-2-methoxy-phenylamino)-benzoic acid] | 434
Cc1cc(I)ccc1Nc1cc(F)ccc1C(=O)NCCCN1CCN(CCO)CC1 [Example 44, 4-Fluoro-N-{3-[4-(2-hydroxy-ethyl)-piperazin-1-yl]-propyl}-2-(4-iodo-2-methyl-phenylamino)-benzamide] | 1480
N-(2,3-Dihydroxy-propyl)-3,4-difluoro-2-(4-iodo-2-methyl-phenylamino)-benzamide [Example 54] | 158
Cc1cc(I)ccc1Nc1ccc(Cl)cc1C(=O)N(C)C [Example 39, 5-Chloro-2-(4-iodo-2-methyl-phenylamino)-N,N-dimethyl-benzamide] | 497
Cc1cc(I)ccc1Nc1cccc(Cl)c1C(=O)O [Example 29, 2-Chloro-6-(4-iodo-2-methyl-phenylamino)-benzoic acid] | 5330
CCNC(=O)c1ccc(F)cc1Nc1ccc(I)cc1C [Example 35, N-Ethyl-4-fluoro-2-(4-iodo-2-methyl-phenylamino)-benzamide] | 121
Cc1cc(I)ccc1Nc1ccc(Br)cc1C(=O)O [Example 8, 5-Bromo-2-(4-iodo-2-methyl-phenylamino)-benzoic acid] | 86
Cc1cc(I)ccc1Nc1cc(F)ccc1C(=O)O [Example 1, 4-Fluoro-2-(4-iodo-2-methylphenylamino)benzoic acid] | 19
O=C(O)c1ccc(F)c(F)c1Nc1c(F)cc(I)cc1F [Example 214, 2-(2,6-Difluoro-4-iodo-phenylamino)-3,4-difluoro-benzoic acid] | 303
CCCCNC(=O)c1ccc(F)cc1Nc1ccc(I)cc1C [Example 46, N-Butyl-4-fluoro-2-(4-iodo-2-methyl-phenylamino)-benzamide] | 1810
O=C(O)c1cccc(Cl)c1Nc1ccc(I)cc1Cl [Example 25, 3-Chloro-2-(2-chloro-4-iodo-phenylamino)-benzoic acid] | 2360
Cc1cc(I)ccc1Nc1ccc([N+](=O)[O-])cc1C(=O)N1CCC(O)C1 (stereo not shown) [Example 95, (3-Hydroxy-pyrrolidin-1-yl)-[2-(4-iodo-2-methyl-phenylamino)-5-nitro-phenyl]-methanone] | 1000
CCN(CC)CCNC(=O)c1cc(Cl)ccc1Nc1ccc(I)cc1C [Example 93, 5-Chloro-N-(2-diethylamino-ethyl)-2-(4-iodo-2-methyl-phenylamino)-benzamide] | 521

Compound | IC50 [nM]
Cc1cc(I)ccc1Nc1ccc([N+](=O)[O-])cc1-c1nnn[nH]1 [Example 209, [4-Nitro-2-(1H-tetrazol-5-yl)phenyl]-(4-iodo-2-methyl-phenyl)-amine] | 1370
Cc1cc(I)ccc1Nc1cc(F)c([N+](=O)[O-])cc1C(=O)O [Example 213, 4-Fluoro-2-(4-iodo-2-methyl-phenylamino)-5-nitro-benzoic acid] | 62
Cc1cc(I)ccc1Nc1ccc(Cl)cc1C(=O)NC1CC1 [Example 192, 5-Chloro-N-cyclopropyl-2-(4-iodo-2-methyl-phenylamino)-benzamide] | 1800
O=C(O)c1cc([N+](=O)[O-])ccc1Nc1ccc(I)cc1Cl [Example 9, 2-(2-Chloro-4-iodo-phenylamino)-5-nitro-benzoic acid] | 97
Cc1c(Nc2cc(F)ccc2C(=O)O)ccc(I)c1Cl [Example 23, 4-Fluoro-2-(3-chloro-4-iodo-2-methyl-phenylamino)-benzoic acid] | 1590
5-Bromo-3,4-difluoro-N-(2-hydroxy-ethyl)-2-(4-iodo-2-methyl-phenylamino)-benzamide [Example 53] | 47
Cc1cc(I)ccc1Nc1ccc(Br)cc1CO [Example 52, [5-Bromo-2-(4-iodo-2-methyl-phenylamino)-phenyl]-methanol] | 2350
Cc1cc(I)ccc1Nc1ccc(I)cc1C(=O)NCCO [Example 191, N-(2-Hydroxy-ethyl)-5-iodo-2-(4-iodo-2-methyl-phenylamino)-benzamide] | 1360
Cc1c(Nc2cc(F)ccc2C(=O)O)ccc(I)c1F [Example 10, 4-Fluoro-2-(3-fluoro-4-iodo-2-methyl-phenylamino)-benzoic acid] | 101
5-Fluoro-N-{3-[4-(2-hydroxy-ethyl)-piperazin-1-yl]-propyl}-2-(4-iodo-2-methyl-phenylamino)-benzamide [Example 90] | 604
Cc1cc(I)ccc1Nc1ccc([N+](=O)[O-])cc1C(=O)NC1CCCCC1 [Example 184, N-Cyclohexyl-2-(4-iodo-2-methyl-phenylamino)-5-nitro-benzamide] | 278
Cc1cc(I)ccc1Nc1ccc(Cl)cc1CO [Example 50, [5-Chloro-2-(4-iodo-2-methyl-phenylamino)-phenyl]-methanol] | 179
Cc1cc(I)ccc1Nc1ccc(Br)cc1C(=O)N1CCC(O)C1 (stereo not shown) [Example 100, [5-Bromo-2-(4-iodo-2-methyl-phenylamino)-phenyl]-(3-hydroxy-pyrrolidin-1-yl)-] | 1990
Cc1cc(I)ccc1Nc1cc(F)ccc1C(=O)Nc1nnn[nH]1 [Example 37, 4-Fluoro-2-(4-iodo-2-methyl-phenylamino)-N-(1H-tetrazol-5-yl)-benzamide] | 237
Cc1cc(I)ccc1Nc1ccc(I)cc1C(=O)O [Example 21, 5-Iodo-2-(4-iodo-2-methyl-phenylamino)-benzoic acid] | 569
Cc1cc(I)ccc1Nc1ccc(Cl)cc1C(=O)NCCN1CCCC1 [Example 96, 5-Chloro-2-(4-iodo-2-methyl-phenylamino)-N-(2-pyrrolidin-1-yl-ethyl)-benzamide] | 374
Cc1cc(I)ccc1Nc1ccc(F)cc1C(=O)O [Example 20, 5-Fluoro-2-(4-iodo-2-methyl-phenylamino)-benzoic acid] | 557
Cc1cc(I)ccc1Nc1ccc(Cl)cc1C(=O)NCCO [Example 31, 5-Chloro-N-(2-hydroxyethyl)-2-(4-iodo-2-methyl-phenylamino)-benzamide] | 226
CCN(CC)C(=O)c1cc([N+](=O)[O-])ccc1Nc1ccc(I)cc1C [Example 45, N,N-Diethyl-2-(4-iodo-2-methyl-phenylamino)-5-nitro-benzamide] | 1760
CCN(CC)C(=O)c1cc(Cl)ccc1Nc1ccc(I)cc1C [Example 47, 5-Chloro-N,N-diethyl-2-(4-iodo-2-methyl-phenylamino)-benzamide] | 1910
Cc1ccc(Nc2ccc(I)cc2C)c(C(=O)O)c1 [Example 28, 5-Methyl-2-(4-iodo-2-methyl-phenylamino)-benzoic acid] | 3670
O=C(O)c1ccc(F)cc1Nc1ccc(I)cc1I [Example 216, 2-(2,4-Diiodo-phenylamino)-4-fluoro-benzoic acid] | 1000
O=C(O)c1ccc(F)cc1Nc1ccc(I)cc1Cl [Example 219, 2-(2-Chloro-4-iodo-phenylamino)-4-fluoro-benzoic acid] | 108
Cc1cc(I)ccc1Nc1ccc([N+](=O)[O-])cc1CO [Example 51, [2-(4-Iodo-2-methyl-phenylamino)-5-nitro-phenyl]-methanol] | 887
